In US20220119354A1, “DIAMINO-SUBSTITUTED PYRIDINES AND PYRIMIDINES AS HERBICIDES” (FMC Corporation, priority 2019, published 2022):

Tests used:
Format in all cases: in vivo
[1] = system: barnyardgrass (Echinochloa crus-galli); experiment: Test A preemergence, barnyardgrass; settings: 0 to 100 scale; for Barnyardgrass plant response rating: 0 is no effect, 100 is complete control
Procedure, shortened: (§1)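 Visual injury scores (0 no effect to 100 complete control) were assigned about 10 d after treatment by comparison with untreated controls. Test chemicals, formulated in a surfactant-containing non-phytotoxic solvent, were applied to soil at planting or to plants at the one- to two-leaf stage.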

[2] = system: kochia (Kochia scoparia); experiment: Test A preemergence, kochia; settings: 0 to 100 scale; for Kochia plant response rating: 0 is no effect, 100 is complete control
Procedure, shortened: as §1

[3] = system: ragweed (common ragweed, Ambrosia elatior); experiment: Test A preemergence, ragweed; settings: 0 to 100 scale; for Ragweed plant response rating: 0 is no effect, 100 is complete control
Procedure, shortened: as §1

[4] = system: ryegrass, Italian (Lolium multiflorum); experiment: Test A preemergence, Italian ryegrass; settings: 0 to 100 scale; for Ryegrass, Italian plant response rating: 0 is no effect, 100 is complete control
Procedure, shortened: as §1

[5] = system: foxtail, giant (Setaria faberii); experiment: Test A preemergence, giant foxtail; settings: 0 to 100 scale; for Foxtail, Giant plant response rating: 0 is no effect, 100 is complete control
Procedure, shortened: as §1

[6] = system: pigweed (Amaranthus retroflexus); experiment: Test A preemergence, pigweed; settings: 0 to 100 scale; for Pigweed plant response rating: 0 is no effect, 100 is complete control
Procedure, shortened: as §1

[7] = system: barnyardgrass (Echinochloa crus-galli); experiment: Test A postemergence, barnyardgrass; settings: 0 to 100 scale; for Plant response rating, Barnyardgrass: 0 no effect, 100 complete control
Procedure, shortened: as §1

[8] = system: kochia (Kochia scoparia); experiment: Test A postemergence, kochia; settings: 0 to 100 scale
Procedure, shortened: as §1

[9] = system: ragweed (common ragweed, Ambrosia elatior); experiment: Test A postemergence, ragweed; settings: 0 to 100 scale
Procedure, shortened: as §1

[10] = system: ryegrass, Italian (Lolium multiflorum); experiment: Test A postemergence, Italian ryegrass; settings: 0 to 100 scale
Procedure, shortened: as §1

[11] = system: foxtail, giant (Setaria faberii); experiment: Test A postemergence, giant foxtail; settings: 0 to 100 scale
Procedure, shortened: as §1

[12] = system: pigweed (Amaranthus retroflexus); experiment: Test A postemergence, pigweed; settings: 0 to 100 scale
Procedure, shortened: as §1

[13] = system: wheat (Triticum aestivum); experiment: Test A postemergence, wheat; settings: 0 to 100 scale
Procedure, shortened: as §1

[14] = system: corn (Zea mays); experiment: Test A postemergence, corn; settings: 0 to 100 scale
Procedure, shortened: as §1

[15] = system: blackgrass (Alopecurus myosuroides); experiment: Test A postemergence, blackgrass; settings: 0 to 100 scale
Procedure, shortened: as §1

[16] = system: galium (catchweed bedstraw, Galium aparine); experiment: Test A postemergence, galium; settings: 0 to 100 scale
Procedure, shortened: as §1

[17] = system: rice (Oryza sativa); experiment: Test B flooded paddy test, rice; settings: Flood, 250 g ai/ha, applied to paddy water, 2-leaf stage, visual evaluation after 13 to 15 d
Procedure, shortened: (§2)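 Application was made into paddy water of pots flooded 3 cm deep at treatment, with seedlings at the 2-leaf stage. That flood level was kept throughout, and plants stayed under glass 13 to 15 d before visual assessment on a 0–100 control scale.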

[18] = system: sedge, umbrella (small-flower umbrella sedge, Cyperus difformis); experiment: Test B flooded paddy test, umbrella sedge; settings: Flood, 250 g ai/ha, applied to paddy water, 2-leaf stage, visual evaluation after 13 to 15 d
Procedure, shortened: as §2

[19] = system: ducksalad (Heteranthera limosa); experiment: Test B flooded paddy test, ducksalad; settings: Flood, 250 g ai/ha, applied to paddy water, 2-leaf stage, visual evaluation after 13 to 15 d
Procedure, shortened: as §2

[20] = system: barnyardgrass (Echinochloa crus-galli); experiment: Test B flooded paddy test, barnyardgrass; settings: Flood, 250 g ai/ha, applied to paddy water, 2-leaf stage, visual evaluation after 13 to 15 d
Procedure, shortened: as §2

[21] = 125 g ai/ha, 0 no effect, 100 complete control
[22] = 500 g ai/ha, 0 no effect, 100 complete control

## C[C@H](COc1ccccc1)Nc1ncc(C(F)(F)F)c(N)n1 [Compound 26]
[1]; 1000 g ai/ha
  Plant response rating, Barnyardgrass: 10
[2]; 1000 g ai/ha
  Plant response rating, Kochia: 0
[3]; 1000 g ai/ha
  Plant response rating, Ragweed: 100
[4]; 1000 g ai/ha
  Plant response rating, Ryegrass, Italian: 20
[5]; 1000 g ai/ha
  Plant response rating, Foxtail, Giant: 50
[6]; 1000 g ai/ha
  Plant response rating, Pigweed: 80
[7]; 1000 g ai/ha
  Plant response rating, Barnyardgrass: 0
[8]; 1000 g ai/ha
  Plant response rating, Kochia: 30
[9]; 1000 g ai/ha
  Plant response rating, Ragweed: 30
[10]; 1000 g ai/ha
  Plant response rating, Ryegrass, Italian: 10
[11]; 1000 g ai/ha
  Plant response rating, Foxtail, Giant: 0
[12]; 1000 g ai/ha
  Plant response rating, Pigweed: 50
[13]; 1000 g ai/ha
  Plant response rating, Wheat: 0
[14]; 1000 g ai/ha
  Plant response rating, Corn: 10
[15]; 1000 g ai/ha
  Plant response rating, Blackgrass: 0
[16]; 1000 g ai/ha
  Plant response rating, Galium: 60
[17]
  Plant response rating, Rice (0 to 100 scale, 0 is no effect, 100 is complete control): 0
[18]
  Plant response rating, Sedge, Umbrella (0 to 100 scale, 0 is no effect, 100 is complete control): 0
[19]
  Plant response rating, Ducksalad (0 to 100 scale, 0 is no effect, 100 is complete control): 0
[20]
  Plant response rating, Barnyardgrass (0 to 100 scale, 0 is no effect, 100 is complete control): 0

## Nc1nc(NC(c2cc3ccccc3o2)C2CC2)ncc1C(F)(F)F (centres unmarked) [Compound 88]
[1]; 125 g ai/ha
  Barnyardgrass plant response rating: 70
[1]; 500 g ai/ha
  Barnyardgrass plant response rating: 90
[2]; 125 g ai/ha
  Kochia plant response rating: 70
[2]; 500 g ai/ha
  Kochia plant response rating: 100
[3]; 125 g ai/ha
  Ragweed plant response rating: 80
[3]; 500 g ai/ha
  Ragweed plant response rating: 100
[4]; 125 g ai/ha
  Ryegrass, Italian plant response rating: 50
[4]; 500 g ai/ha
  Ryegrass, Italian plant response rating: 100
[5]; 125 g ai/ha
  Foxtail, Giant plant response rating: 90
[5]; 500 g ai/ha
  Foxtail, Giant plant response rating: 100
[6]; 125 g ai/ha
  Pigweed plant response rating: 100
[6]; 500 g ai/ha
  Pigweed plant response rating: 100
[7]; 125 g ai/ha
  Plant response rating, Barnyardgrass: 10
[7]; 500 g ai/ha
  Plant response rating, Barnyardgrass: 90
[8]; [21]
  Plant response rating, Kochia: 90
[8]; [22]
  Plant response rating, Kochia: 90
[9]; [21]
  Plant response rating, Ragweed: 30
[9]; [22]
  Plant response rating, Ragweed: 90
[10]; [21]
  Plant response rating, Ryegrass, Italian: 50
[10]; [22]
  Plant response rating, Ryegrass, Italian: 60
[11]; [21]
  Plant response rating, Foxtail, Giant: 30
[11]; [22]
  Plant response rating, Foxtail, Giant: 90
[12]; [21]
  Plant response rating, Pigweed: 100
[12]; [22]
  Plant response rating, Pigweed: 100
[13]; [21]
  Plant response rating, Wheat: 0
[13]; [22]
  Plant response rating, Wheat: 0
[14]; [21]
  Plant response rating, Corn: 20
[14]; [22]
  Plant response rating, Corn: 30
[15]; [21]
  Plant response rating, Blackgrass: 50
[15]; [22]
  Plant response rating, Blackgrass: 50
[16]; [21]
  Plant response rating, Galium: 90
[16]; [22]
  Plant response rating, Galium: 90
[17]
  Plant response rating, Rice (0 to 100 scale, 0 is no effect, 100 is complete control): 0
[18]
  Plant response rating, Sedge, Umbrella (0 to 100 scale, 0 is no effect, 100 is complete control): 95
[19]
  Plant response rating, Ducksalad (0 to 100 scale, 0 is no effect, 100 is complete control): 65
[20]
  Plant response rating, Barnyardgrass (0 to 100 scale, 0 is no effect, 100 is complete control): 80

## C[C@@H](Nc1ncc(C(F)(F)F)c(N)n1)C1Cc2ccccc2C1 [Compound 13, N2-[(1R)-1-(2,3-dihydro-1H-inden-2-yl)ethyl]-5-(trifluoromethyl)-2,4-pyrimidinediamine]
[1]; 125 g ai/ha
  Plant response rating, Barnyardgrass: 90
[1]; 500 g ai/ha
  Plant response rating, Barnyardgrass: 100
[2]; 125 g ai/ha
  Plant response rating, Kochia: 100
[2]; 500 g ai/ha
  Plant response rating, Kochia: 100
[3]; 125 g ai/ha
  Plant response rating, Ragweed: 100
[3]; 500 g ai/ha
  Plant response rating, Ragweed: 100
[4]; 125 g ai/ha
  Plant response rating, Ryegrass, Italian: 60
[4]; 500 g ai/ha
  Plant response rating, Ryegrass, Italian: 100
[5]; 125 g ai/ha
  Plant response rating, Foxtail, Giant: 100
[5]; 500 g ai/ha
  Plant response rating, Foxtail, Giant: 100
[6]; 125 g ai/ha
  Plant response rating, Pigweed: 100
[6]; 500 g ai/ha
  Plant response rating, Pigweed: 100
[7]; Echinochloa crus-galli, post-emergence, 240 h, 125 g ai/ha, read-out: Plant response rating, Barnyardgrass
  pest or weed control at 125 g/ha: 30%
[7]; Echinochloa crus-galli, post-emergence, 240 h, 500 g ai/ha, read-out: Plant response rating, Barnyardgrass
  pest or weed control at 500 g/ha: 60%
[8]; Bassia scoparia, post-emergence, 240 h, 125 g ai/ha, read-out: Plant response rating, Kochia
  pest or weed control at 125 g/ha: 90%
[8]; Bassia scoparia, post-emergence, 240 h, 500 g ai/ha, read-out: Plant response rating, Kochia
  pest or weed control at 500 g/ha: 100%
[9]; Ambrosia artemisiifolia, post-emergence, 240 h, 125 g ai/ha, read-out: Plant response rating, Ragweed
  pest or weed control at 125 g/ha: 30%
[9]; Ambrosia artemisiifolia, post-emergence, 240 h, 500 g ai/ha, read-out: Plant response rating, Ragweed
  pest or weed control at 500 g/ha: 80%
[10]; Lolium multiflorum, post-emergence, 240 h, 125 g ai/ha, read-out: Plant response rating, Ryegrass, Italian
  pest or weed control at 125 g/ha: 0%
[10]; Lolium multiflorum, post-emergence, 240 h, 500 g ai/ha, read-out: Plant response rating, Ryegrass, Italian
  pest or weed control at 500 g/ha: 20%
[11]; Setaria faberi, post-emergence, 240 h, 125 g ai/ha, read-out: Plant response rating, Foxtail, Giant
  pest or weed control at 125 g/ha: 80%
[11]; Setaria faberi, post-emergence, 240 h, 500 g ai/ha, read-out: Plant response rating, Foxtail, Giant
  pest or weed control at 500 g/ha: 100%
[12]; Amaranthus retroflexus, post-emergence, 240 h, 125 g ai/ha, read-out: Plant response rating, Pigweed
  pest or weed control at 125 g/ha: 100%
[12]; Amaranthus retroflexus, post-emergence, 240 h, 500 g ai/ha, read-out: Plant response rating, Pigweed
  pest or weed control at 500 g/ha: 100%
[13]; Triticum aestivum, post-emergence, 240 h, 125 g ai/ha, read-out: Plant response rating, Wheat
  plant injury at 125 g/ha: 0%
[13]; Triticum aestivum, post-emergence, 240 h, 500 g ai/ha, read-out: Plant response rating, Wheat
  plant injury at 500 g/ha: 20%
[14]; Zea mays, post-emergence, 240 h, 125 g ai/ha
  Corn plant response rating (crop injury, 0 = no effect, 100 = complete kill) at 125 g/ha: 10%
[14]; Zea mays, post-emergence, 240 h, 500 g ai/ha
  Corn plant response rating (crop injury, 0 = no effect, 100 = complete kill) at 500 g/ha: 60%
[15]; Alopecurus myosuroides, post-emergence, 240 h, 125 g ai/ha, read-out: Plant response rating, Blackgrass
  pest or weed control at 125 g/ha: 10%
[15]; Alopecurus myosuroides, post-emergence, 240 h, 500 g ai/ha, read-out: Plant response rating, Blackgrass
  pest or weed control at 500 g/ha: 30%
[16]; Galium, post-emergence, 240 h, 125 g ai/ha, read-out: Plant response rating, Galium
  pest or weed control at 125 g/ha: 80%
[16]; Galium, post-emergence, 240 h, 500 g ai/ha, read-out: Plant response rating, Galium
  pest or weed control at 500 g/ha: 80%
[17]; Oryza sativa, 360 h, read-out: Plant response rating, Rice (0 to 100 scale, 0 is no effect, 100 is complete control)
  plant injury at 250 g/ha: 10%
[18]; Cyperus difformis, 360 h, read-out: Plant response rating, Sedge, Umbrella (0 to 100 scale, 0 is no effect, 100 is complete control)
  pest or weed control at 250 g/ha: 95%
[19]; Heteranthera limosa, 360 h, read-out: Plant response rating, Ducksalad (0 to 100 scale, 0 is no effect, 100 is complete control)
  pest or weed control at 250 g/ha: 75%
[20]; Echinochloa crus-galli, 360 h, read-out: Plant response rating, Barnyardgrass (0 to 100 scale, 0 is no effect, 100 is complete control)
  pest or weed control at 250 g/ha: 90%
